This is an account of results in article PMC11091117, “A fluorescently-tagged tick kinin neuropeptide triggers peristalsis and labels tick midgut muscles” (Scientific Reports, 2024).

“Also recorded” adds a separate entry of the source. Where no end group is shown, it is not given here.

For assay [1], the system named is R. microplus recombinant receptor. On the set-up: method as in PMID 31794138. The note with it: cited from earlier work.
Assay [2] has as its system vector-only (V/O) CHO-K1 cells. Kind of assay: Cellular end-point fluorescence calcium mobilization assay, vector-only control cells. In kind it is cell-based. Particulars: 10 µM peptide, Fluo-8, 29 °C, 60 s, 4 technical replicates. An excerpt: Three peptides were used in this study. These included: 1) the ligand for the endogenous tick kinin receptor from Rhipicephalus sanguineus, Rhisa-kinin 8 peptide of sequence GTGEDQAFSPWGamide (Rhisa-K-8; RK8; of identical sequence to Rhimi-K-8 in Rhipicephalus microplus)[48], 2) the same peptide but fluorescently labeled at the N-terminus with tetramethylrhodamine (TMR) a red fluorescent dye, designated TMR-Rhisa-K-8 (TMR-RK8), and 3) a labeled peptide synthesized with the scrambled sequence of the kinin ligand, designated TMR-Scrambled. The sequence of TMR-RK8 was TMR-C-GTGEDQAFSPWGamide). The TMR-Scrambled kinin (TMR-C-GTQWGPGFEADSamide) served as a negative control for tissue labeling. […]
(§1) A fluorescence-based intracellular calcium mobilization end-point assay described by Xiong, et al.[50] was used to confirm the activity of the TMR-labeled RK8 peptide on a cell line expressing the tick kinin receptor. […] The calcium fluorescence signal was detected by a CLARIOstar (BMG LABTECH, Chicago, IL, United States) plate reader set to read at the fluorescence plate-mode with excitation and emission wavelengths of 490 and 525 nm at 29 °C. Calcium responses were read immediately after the addition of 10 µL of either TMR-RK8, unlabeled RK8, or blank solvent (1% DMSO in HBSS). […]

For assay [3], the system named is tick kinin receptor (recombinant R. microplus receptor, CHO-K1 BMLK3 cells). Put plainly: Cellular end-point fluorescence calcium mobilization assay, BMLK3 cells. It counts as cell-based, Rhipicephalus microplus.
Description: Three peptides were used in this study. These included: 1) the ligand for the endogenous tick kinin receptor from Rhipicephalus sanguineus, Rhisa-kinin 8 peptide of sequence GTGEDQAFSPWGamide (Rhisa-K-8; RK8; of identical sequence to Rhimi-K-8 in Rhipicephalus microplus)[48], 2) the same peptide but fluorescently labeled at the N-terminus with tetramethylrhodamine (TMR) a red fluorescent dye, designated TMR-Rhisa-K-8 (TMR-RK8), and 3) a labeled peptide synthesized with the scrambled sequence of the kinin ligand, designated TMR-Scrambled. The sequence of TMR-RK8 was TMR-C-GTGEDQAFSPWGamide). The TMR-Scrambled kinin (TMR-C-GTQWGPGFEADSamide) served as a negative control for tissue labeling. All peptides were custom-synthesized and purchased from GenScript (Piscataway, NJ, USA) with a purity of ≥ 95% and the cysteine in bold in both sequences was added to attach the label. Experiments were replicated with independently synthesized batches (4 mg each) of labeled and unlabeled peptides, for reproducibility. Unlabeled RK8 was used as a competitive ligand to verify target-specific binding of the labeled TMR-RK8 (see Ligand Competition Assay). For cell assays, the peptide stock solutions (100 µM) were made in 1% dimethyl sulfoxide (DMSO) in Hank’s balanced salt solution (HBSS, Thermo Fisher, Waltham, USA). For fluorescent cell labeling, peptide working solutions (10 µM) were prepared in HBSS from stock solutions. For assays on the midgut, peptides were solubilized and diluted in a tick physiological saline consisting of 140 mM NaCl, 5 mM KCl, 1 mM MgCl2, 5 mM CaCl2, 4 mM NaHCO3, and 5 mM HEPES, pH 7.2[49].
The tick kinin receptor is stably expressed in the recombinant CHO-K1 cell line designated BMLK3 (Boophilus microplus leucokinin receptor 3) that was constructed and selected as described by Holmes, et al.[47]. The CHO-K1 cells had been obtained from the American Type Culture Collection (ATCC) for transfection with the expression construct. This cell line has been kept in the laboratory since 2003. Cells that were transfected only with an empty plasmid are referred to as “vector-only” (V/O) cells and were used as a negative control. Before all experiments, the BMLK3 cell line or V/O cells were separately cultured in T-75 flasks with selective medium (F-12 K medium containing 10% FBS and 800 μgmL^−1 of G418 sulfate) for one to two passages in a humidified incubator at 37 °C and 5% CO2.
as §1, with “receptor. For this, BMLK3 and V/O cells were cultured in F-12 K medium (1% FBS and 400 μgmL^−1- of G418 Sulfate). The cells were seeded in a 96-well plate with 20,000 cells per well and incubated overnight at 37 °C and 5% CO2. The next morning, cells were prepared for the assay following the manufacturer’s instructions for the Fluo-8 Calcium Flux Assay Kit – NoWash (Abcam, Cambridge, United Kingdom). The F-12 K medium in the plate was removed by inverting the plate and gently blotting on paper towels.” for “receptor.”
On the technique in general: Calcium assays in cells follow changes in intracellular calcium, usually with a dye or a luminescent sensor.

In assay [4] the test system is tick kinin receptors on midgut muscles. Kind of assay: Ligand competition assay on midgut. In kind it is binding, Rhipicephalus sanguineus. The note with it: TMR-RK8 10 µM 1 min, then unlabeled RK8 100 µM 1 min, tick saline, confocal 20x. An excerpt:
Individual female ticks were immobilized on a Petri dish filled with wax by submerging their legs in melted wax heated with a soldering pencil (Electronic Control Soldering Station EC 1000, Weller, Apex, North Carolina, USA). Females were dissected under physiological saline following the protocol described by Tidwell et al.[51]. The tick was cut along the edge of the scutum/alloscutum using a stainless steel #12 scalpel blade (Integra Miltex, York, PA, USA), after which the scutum was removed with a pair of fine forceps. To expose the midgut for removal, the tracheae, Malpighian tubules, ovaries, rectal sac, and synganglion were removed with fine forceps in that order. The midgut was then carefully removed and placed into 200 µL of fresh tick saline (See Reagents and Peptides) on a single gasketed incubation chamber (500 µL, Size 22 × 40 mm, Electron Microscopy Sciences, Hatfield, PA). […]
Fluorescently-labeled midgut tissues were imaged using a Leica SP8 inverted confocal microscope. For fluorescence excitation, the 405 nm fixed-wavelength laser was used for DAPI and a white light laser selective for wavelengths between 470 and 670 nm was used for tetramethylrhodamine and phalloidin. […] Images were analyzed and computer-colored using Fiji/ImageJ (National Institutes of Health, Bethesda, MD). […]

For “GTGEDQAFSPWG-NH2 [RK8, endogenous ligand of the tick kinin receptor from Rhipicephalus sanguineus, identical to Rhimi-K-8 of R. microplus]”, the “activity on the R. microplus recombinant receptor (in words)” value in assay [1] is “highly active at the nanomolar level”. Further, the “calcium fluorescence response of vector-only cells (in words)” value in assay [2] is listed as “invariable background fluorescence”. Moreover, the “intracellular calcium fluorescence response / receptor activation (in words)” value in assay [3] (10 nM to 10 μM (four concentrations), 1% DMSO in HBSS, Fluo-8, Ex 490/Em 525 nm, 29 °C, read 60 s at 1 s intervals, average raw fluorescence units of 4 technical replicates, simple linear regression) is “elicited a dose-dependent intracellular calcium fluorescence response”. For the same substance, the “fluorescence units at highest concentration, TMR-RK8 compared with RK8 (in words)” value in assay [3] (highest concentration assayed 10 µM, Fluo-8, 4 technical replicates) is “maximal and similar for the highest concentration assayed of 10 µM”. Also, the “displacement of TMR-RK8 muscle labeling by unlabeled RK8 (in words)” value in assay [4] is “substantial reduction in the fluorescent signal observed on muscles; also recorded: greatly reduced the fluorescent signal of muscles; also recorded: competitive inhibition of fluorescent signal on muscle tissue”; in assay [4] (listed as kinin 8) it was “competed TMR-RK8, decreasing confocal microscopy signal intensity”.
